Results on four compounds are retold here after patent publication US5622839A (ZymoGenetics, Inc., priority 1995, dated 1997).

The target of series [1] is T1, human calcitonin receptor (Homo sapiens, UniProt P30988).
T1 construct: Hollex encoded a protein of 474 amino acids; expressed in transfected cells; host or cells: BHK 570 / BHK/KZ10-20-48 (baby hamster kidney) stably transfected with pHollex
T1 sequence (P30988 25-474): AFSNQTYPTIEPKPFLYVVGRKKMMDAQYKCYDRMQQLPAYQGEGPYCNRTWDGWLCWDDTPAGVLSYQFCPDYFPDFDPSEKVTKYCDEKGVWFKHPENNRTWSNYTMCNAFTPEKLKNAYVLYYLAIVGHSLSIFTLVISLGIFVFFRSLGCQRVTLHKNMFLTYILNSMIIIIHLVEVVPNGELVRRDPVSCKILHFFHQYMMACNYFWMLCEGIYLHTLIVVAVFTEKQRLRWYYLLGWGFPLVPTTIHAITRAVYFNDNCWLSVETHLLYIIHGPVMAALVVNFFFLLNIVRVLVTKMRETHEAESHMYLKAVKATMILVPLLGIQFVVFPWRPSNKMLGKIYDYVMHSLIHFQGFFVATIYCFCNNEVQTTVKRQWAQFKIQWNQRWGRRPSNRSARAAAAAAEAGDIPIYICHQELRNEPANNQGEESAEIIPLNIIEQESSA
Description: [Ca2+]i response of BHK cells expressing cloned calcitonin receptor to calcitonin and extracellular calcium (fura-2). It counts as cell-based. The settings on record: for average peak [Ca2+]i response vs receptor number: each cell line expressing the calcitonin receptor. As for the experimental part: (§1) BHK cells expressing the cloned calcitonin receptor were assayed to determine their response to extracellular calcium. Cells were washed three times with a buffer (140 mM NaCl, 5 mM KCl, 0.5 mM MgCl2, 0.5 mM CaCl2 (concentration varied in some experiments), 10 mM glucose, 10 mM HEPES, pH 7.4) made using high purity salts (Aldrich, Milwaukee, Wis.) and sterile water (Baxter, McGaw Park, Ill.). Cells were loaded with fura-2 AM (Molecular Probes Inc.) (10 μg/ml) for 30 minutes essentially as described above, then washed an additional three times. Slides were mounted at room temperature on an inverted microscope (EPIPHOT, Nikon), and a field of cells (typically 20-30 cells) was located using a 40× Nikon fluor objective. The ratio of fura-2 emission at excitation wavelengths of 340 and 380 nm was recorded every 5 seconds. Individual cells were analyzed on a computer workstation (Sun Microsystems) using a software system designed for ratio imaging (Inovision). The concentration of calcium chloride in buffers was determined by comparison to calcium standards on a calcium analyzer (Nova Biomedical Corp. Waltham, Mass.). All experiments were reproduced three to eight times. Fura-2 ratio 340 nm to 380 nm values (R) were converted to [Ca^2+ ]i concentrations after calibration of the instrument using the formula: calcium (nm)=2240[R-0.3)/(20-R)]. Basal [Ca^2+ ]i concentrations were typically 80-150 nm. The peak fura-2 ratios 340/380 of individual cells exposed to 20 nm salmon calcitonin followed by 25 mM calcium chloride were averaged for some experiments and converted to [Ca^2+ ]i concentrations. Standard error was calculated at a 99% level using a Z score of 2.58 (n>30).

Another series deals with Control BHK cell lines. Description: [Ca2+]i response of control (calcitonin receptor-negative) BHK cells to extracellular calcium. Format: cell-based, baby hamster. The protocol:
as §1, with “Fura-2 ratio 340 nm to 380 nm values (R) were converted to [Ca^2+ ]i concentrations after calibration of the instrument using the formula: calcium (nm)=2240[R-0.3)/(20-R)]. Basal [Ca^2+ ]i concentrations were typically 80-150 nm. The peak fura-2 ratios 340/380 of individual cells exposed to 20 nm salmon calcitonin followed by 25 mM calcium chloride were averaged for some experiments and converted to [Ca^2+ ]i concentrations.” left out

For a further series, the system named is bone resorption. The following applies: patients given long term treatment; Azria 1989; cited from earlier work.
Series [2] concerns the target T1, human calcitonin receptor. Description: Intracellular calcium response of Hollex1/Hollex2 cells (fura-2 imaging). Format: cell-based.
The test system of a further series is BHK/Zem228R. Description: Binding/competition assay with BHK/Zem228R cells (negative control). Details: species or system baby hamster. As for the experimental part: A pool of transfectants expressing the plaex 1 was tested for receptor-mediated binding to calcitonin using a competition assay. Hollex1 was used as a positive control and BHK cells transfected with Zem228R were used as a negative control.
The cells were plated at a density of 1×10^5 cells/well in a 24-well cell culture dish and allowed to grow for 48 hours at 37° C. and 5% CO2 in growth medium (described in previous examples). The cells were rinsed in binding medium as described in Example IIE. Three hundred microliters of hot binding medium containing 10 nM hCT and 5 μCi/ml ^125 I hCT. Cold competition was achieved by adding unlabelled hCT to a final concentration of 1 μM were added to appropriate wells. The cells were incubated 1.5 hours at room temperature. Unincorporated radioactivity was removed by three washes with PBS. Five hundred microliters of 1N NaOH was added to each well to solublize the cells. Each sample was counted on a gamma counter.

The mark [3] stands for this setting: 25 mM extracellular calcium chloride, about 700,000 receptors/cell.
Where [4] appears, read: cell lines expressing 100,000 and 150,000 receptors/cell.

Regarding `[Cl-].[K+]` [KCl], the “[Ca2+]i response to 73 mM KCl” value in series [1] (instead of CaCl2, about 700,000 receptors/cell) was “no effect”.
As for `[Ca+2].[Cl-].[Cl-]` [calcium chloride], in series [1] (setting [3]), the “magnitude of [Ca2+]i response relative to that induced by calcitonin” value is given as “comparable to that induced by calcitonin” and the “time for response to return to an elevated basal level” value is “about 20 minutes”. For the same compound, the “effect of calcitonin pretreatment on magnitude of response to extracellular calcium” value in series [1] (25 mM, about 700,000 receptors/cell, p<0.01) is “not significantly altered”. The “concentration of maximum response” value in series [1] (700,000 receptors/cell) is “approximately 14 mM”. Also, the EC50 in series [1] (700,000 receptors/cell, double reciprocal plot, read-out: effective concentration for half-maximal response) was in the range of 8 to 10 mM. In addition, the “smallest increase in extracellular calcium giving a significant response” value in series [1] (700,000 receptors/cell, increase over basal (1.3 mM)) came out at 2 mM. For the same compound, the “[Ca2+]i response to millimolar increases in extracellular calcium” value in series [1] (BHK cells expressing recombinant calcitonin receptor) was “rapid and sustained elevation in [Ca^2+ ]i”. The “[Ca2+]i response to 25 mM extracellular calcium for two minutes followed by continuous wash” value in series [1] (about 700,000 receptors/cell) was “rapid and transient increase in [Ca^2+ ]i”. Moreover, in series [1] (about 700,000 receptors/cell, with or without calcitonin pretreatment), the “[Ca2+]i response to 25 mM extracellular calcium chloride” value is “rapid and sustained increase in [Ca2+ ]i”. Besides, the “[Ca2+]i response” value in series [1] (setting [4]) is “increases in [Ca^2+ ]i”. Further, the “average peak [Ca2+]i response vs receptor number” value in series [1] is recorded as “proportional to the average number of receptors per cell”. The “response to extracellular calcium” value in the series on Control BHK cell lines (Control BHK cell lines) is given as “no response”. In the series with Control BHK cell lines (three calcitonin receptor-negative BHK cell lines), the “sensitivity to changes in extracellular calcium” value is given as “no sensitivity”.
With calcitonin, the “resistance cases not accompanied with antibody formation” value in the series on bone resorption is recorded as “approximately 50%”. In series [1] (setting [4]), the “[Ca2+]i response” value was “increases in [Ca^2+ ]i” and the “effect of calcitonin pretreatment on response to extracellular calcium” value was “marked potentiation”. Further, in series [1], the “average peak [Ca2+]i response vs receptor number” value is recorded as “proportional to the average number of receptors per cell”. Moreover, the “cells with a calcium response” value in series [2] (Hollex1 cells) was 30-70%. In series [2] (Hollex2 cells), the “cells with a calcium response” value was 1-5%.
As to “human calcitonin: human calcitonin (hCT), natural peptide hormone ligand of the calcitonin receptor”, the hot with BHK/Zem228R (10 nM hCT and 5 μCi/ml 125I hCT) is listed as 147 cpm. In the series with BHK/Zem228R (plus unlabelled hCT 1 μM), the hot/cold is 105 cpm.
